Assays:
[1] = Toxicity in Galleria mellonella larvae assessed as larval survival at 200 mg/kg measured after 96 hrs; type: organism-based; settings: in vivo
Pseudomonas aeruginosa [2] = test: Antibacterial activity against Pseudomonas aeruginosa 101885 assessed as potentiation of doxycycline-induced antibacterial activity by measuring doxycycline MIC at 9.8 uM incubated for 18 hrs in presence of doxycycline by broth microdilution assay (reference value: 64 ug/ml); type: functional
Pseudomonas aeruginosa [3] = test: Antibacterial activity against Pseudomonas aeruginosa 260-97103 assessed as potentiation of doxycycline-induced antibacterial activity by measuring doxycycline MIC at 9.8 uM incubated for 18 hrs in presence of doxycycline by broth microdilution assay (reference value: 16 ug/ml); type: functional
Pseudomonas aeruginosa [4] = test: Antibacterial activity against Pseudomonas aeruginosa 114228 assessed as potentiation of chloramphenicol-induced antibacterial activity by measuring chloramphenicol MIC at 9.8 uM incubated for 18 hrs in presence of chloramphenicol by broth microdilution assay (reference value: 64 ug/ml); type: functional
Pseudomonas aeruginosa [5] = test: Antibacterial activity against Pseudomonas aeruginosa 101885 assessed as fractional inhibitory concentration incubated for 18 hrs in presence of minocycline by broth microdilution assay; type: functional
Pseudomonas aeruginosa [6] = test: Antibacterial activity against Pseudomonas aeruginosa 260-97103 assessed as fractional inhibitory concentration incubated for 18 hrs in presence of tigecycline by broth microdilution assay; type: functional
Pseudomonas aeruginosa [7] = test: Antibacterial activity against Pseudomonas aeruginosa 262-101856 assessed as fractional inhibitory concentration incubated for 18 hrs in presence of tigecycline by broth microdilution assay; type: functional
Pseudomonas aeruginosa [8] = test: Antibacterial activity against Pseudomonas aeruginosa 262-101856 assessed as fractional inhibitory concentration incubated for 18 hrs in presence of minocycline by broth microdilution assay; type: functional
Pseudomonas aeruginosa [9] = test: Antibacterial activity against Pseudomonas aeruginosa 264-101354 assessed as fractional inhibitory concentration incubated for 18 hrs in presence of minocycline by broth microdilution assay; type: functional
Pseudomonas aeruginosa [10] = test: Antibacterial activity against Pseudomonas aeruginosa 259-96918 assessed as fractional inhibitory concentration index incubated for 18 hrs in presence of tigecycline by broth microdilution assay; type: functional
Pseudomonas aeruginosa [11] = test: Antibacterial activity against Pseudomonas aeruginosa 260-97103 assessed as fractional inhibitory concentration index incubated for 18 hrs in presence of tigecycline by broth microdilution assay; type: functional
Pseudomonas aeruginosa [12] = test: Antibacterial activity against Pseudomonas aeruginosa 262-101856 assessed as fractional inhibitory concentration index incubated for 18 hrs in presence of rifampicin by broth microdilution assay; type: functional
Pseudomonas aeruginosa [13] = test: Antibacterial activity against Pseudomonas aeruginosa 114228 assessed as fractional inhibitory concentration index incubated for 18 hrs in presence of tigecycline by broth microdilution assay; type: functional
Pseudomonas aeruginosa [14] = test: Potentiation of chloramphenicol-induced antibacterial activity against Pseudomonas aeruginosa PAO200 harboring mexA-mexB-oprM deletion mutant assessed as fold change in chloramphenicol MIC at <=9.8 uM incubated for 18 hrs in presence of chloramphenicol by broth microdilution assay; type: functional; settings: dose microM <=9.8
Pseudomonas aeruginosa [15] = test: Antibacterial activity against Pseudomonas aeruginosa 260-97103 infected in Galleria mellonella larvae assessed as survival of larvae at 100 mg/kg treated at 3 hrs post-infection in presence of doxycycline and measured after 24 hrs relative to control; type: functional
Pseudomonas aeruginosa [16] = test: Antibacterial activity against Pseudomonas aeruginosa 260-97103 infected in Galleria mellonella larvae assessed as survival of larvae at 75 mg/kg treated at 3 hrs post-infection in presence of chloramphenicol and measured after 18 hrs relative to control; type: functional
Pseudomonas aeruginosa [17] = test: Potentiation of doxycycline-induced antibacterial activity against Pseudomonas aeruginosa 264-101354 assessed as fold change in doxycycline MIC at 9.8 uM incubated for 18 hrs in presence of doxycycline by broth microdilution assay relative to control; type: functional
Pseudomonas aeruginosa [18] = test: Potentiation of doxycycline-induced antibacterial activity against Pseudomonas aeruginosa 259-96918 assessed as fold change in doxycycline MIC at 9.8 uM incubated for 18 hrs in presence of doxycycline by broth microdilution assay relative to control; type: functional
Pseudomonas aeruginosa [19] = test: Potentiation of doxycycline-induced antibacterial activity against Pseudomonas aeruginosa 114228 assessed as fold change in doxycycline MIC at 9.8 uM incubated for 18 hrs in presence of doxycycline by broth microdilution assay relative to control; type: functional
Pseudomonas aeruginosa [20] = test: Potentiation of doxycycycline-induced bactericidal activity against Pseudomonas aeruginosa PAO1 assessed as reduction in bacterial colonies incubated for >= 24 hrs in LB medium in presence of doxycycline followed by plating on agar plate and measured after 20 hrs by time-kill assay; type: functional, organism-based; settings: dose 4.9-9.8 µM, time hrs >=44
Escherichia coli = test: Potentiation of chloramphenicol-induced antibacterial activity against Escherichia coli ATCC 25922 assessed as fold change in chloramphenicol MIC at 9.8 uM incubated for 18 hrs in presence of chloramphenicol by broth microdilution assay relative to control; type: functional
Pseudomonas aeruginosa [21] = test: Antibacterial activity against Pseudomonas aeruginosa 262-101856 assessed as reduction in bacterial growth by measuring chloramphenicol MIC at 8 ug/ml incubated for 18 hrs in presence of chloramphenicol by broth microdilution assay (reference value: 2048 ug/ml); type: functional; settings: dose 8 µg/ml
Pseudomonas aeruginosa [22] = test: Antibacterial activity against wild type Pseudomonas aeruginosa PAO1 assessed as reduction in bacterial growth by measuring chloramphenicol MIC at 8 ug/ml incubated for 18 hrs in presence of chloramphenicol by broth microdilution assay (reference value: 32 ug/ml); type: functional; settings: dose 8 µg/ml
Pseudomonas aeruginosa [23] = test: Antibacterial activity against wild type Pseudomonas aeruginosa PAO1 assessed as reduction in bacterial growth by measuring doxycycline MIC at 8 ug/ml incubated for 18 hrs in presence of doxycycline by broth microdilution assay (reference value: 16 ug/ml); type: functional; settings: dose 8 µg/ml
Pseudomonas aeruginosa [24] = test: Antibacterial activity against Pseudomonas aeruginosa 264-101354 assessed as potentiation of chloramphenicol-induced antibacterial activity by measuring chloramphenicol MIC at 7.6 uM incubated for 18 hrs in presence of chloramphenicol by broth microdilution assay (reference value: 4096 ug/ml); type: functional
Pseudomonas aeruginosa [25] = test: Antibacterial activity against Pseudomonas aeruginosa 101243 assessed as potentiation of doxycycline-induced antibacterial activity by measuring doxycycline MIC at 7.6 uM incubated for 18 hrs in presence of doxycycline by broth microdilution assay (reference value: 4 ug/ml); type: functional
Pseudomonas aeruginosa [26] = test: Antibacterial activity against Pseudomonas aeruginosa 101243 assessed as potentiation of chloramphenicol-induced antibacterial activity by measuring chloramphenicol MIC at 7.6 uM incubated for 18 hrs in presence of chloramphenicol by broth microdilution assay (reference value: 1 ug/ml); type: functional
Pseudomonas aeruginosa [27] = test: Potentiation of doxycycline-induced antibacterial activity against Pseudomonas aeruginosa 264-101354 assessed as fold change in doxycycline MIC at 7.6 uM incubated for 18 hrs in presence of doxycycline by broth microdilution assay relative to control; type: functional
Pseudomonas aeruginosa [28] = test: Potentiation of chloramphenicol-induced antibacterial activity against Pseudomonas aeruginosa 259-96918 assessed as fold change in chloramphenicol MIC at 7.6 uM incubated for 18 hrs in presence of chloramphenicol by broth microdilution assay relative to control; type: functional
Acinetobacter baumannii = test: Potentiation of chloramphenicol-induced antibacterial activity against Acinetobacter baumannii ATCC 17978 assessed as fold change in chloramphenicol MIC at 7.6 uM incubated for 18 hrs in presence of chloramphenicol by broth microdilution assay relative to control; type: functional

Question: For `CO[C@H]1/C=C/O[C@@]2(C)Oc3c(C)c(O)c4c(O)c(c(/C=N/N5CCN(Cc6cn(CCCCCCO[C@@H]7[C@@H](O[C@H]8O[C@H](CO)[C@@H](O)[C@H](N)[C@H]8O)[C@H](N)C[C@H](N)[C@H]7O[C@H]7O[C@H](CN)[C@@H](O)C[C@H]7N)nn6)CC5)c(O)c4c3C2=O)NC(=O)/C(C)=C\C=C\[C@H](C)[C@H](O)[C@@H](C)[C@@H](O)[C@@H](C)[C@H](OC(C)=O)[C@@H]1C.Cl.Cl.Cl.Cl.Cl`, which survival at 96 h [1] is on record?
Answer: 97%

Question: What about the MIC (Pseudomonas aeruginosa [2]) of the same molecule?
Answer: 1 µg/mL

Question: What about the MIC (Pseudomonas aeruginosa [3]) of the same molecule?
Answer: 0.125 µg/mL

Question: What about the MIC (Pseudomonas aeruginosa [4]) of the same molecule?
Answer: 16 µg/mL

Question: And the FIC (Pseudomonas aeruginosa [5])?
Answer: 0.063

Question: And the FIC (Pseudomonas aeruginosa [6])?
Answer: <0.125

Question: What about the FIC (Pseudomonas aeruginosa [7]) of the same molecule?
Answer: <0.063

Question: What about the FIC (Pseudomonas aeruginosa [8]) of the same molecule?
Answer: <0.063

Question: And the FIC (Pseudomonas aeruginosa [9])?
Answer: 0.063

Question: And the “fractional inhibitory concentration index (FICI)” value (Pseudomonas aeruginosa [10])?
Answer: <0.25

Question: And the “fractional inhibitory concentration index (FICI)” value (Pseudomonas aeruginosa [11])?
Answer: <0.16

Question: What about the “fractional inhibitory concentration index (FICI)” value (Pseudomonas aeruginosa [12]) of the same molecule?
Answer: <0.51

Question: What about the “fractional inhibitory concentration index (FICI)” value (Pseudomonas aeruginosa [13]) of the same molecule?
Answer: <0.53

Question: What about the “fold change (FC)” value (Pseudomonas aeruginosa [14]) of the same molecule?
Answer: 16

Question: And the survival at 100 mg/kg (Pseudomonas aeruginosa [15])?
Answer: 75%

Question: What about the survival at 75 mg/kg (Pseudomonas aeruginosa [16]) of the same molecule?
Answer: 55%

Question: And the “fold change (FC)” value (Pseudomonas aeruginosa [17])?
Answer: 4

Question: And the “fold change (FC)” value (Pseudomonas aeruginosa [18])?
Answer: 4

Question: And the “fold change (FC)” value (Pseudomonas aeruginosa [19])?
Answer: 4

Question: What about the Activity (Pseudomonas aeruginosa [20]) of the same molecule?
Answer: Dose-dependent effect

Question: What about the “fold change (FC)” value (Escherichia coli) of the same molecule?
Answer: 0

Question: With `NC[C@H]1O[C@H](O[C@H]2[C@H](O)[C@@H](O[C@H]3O[C@H](CO)[C@@H](O)[C@H](N)[C@H]3O)[C@H](N)C[C@@H]2N)[C@H](N)C[C@@H]1O` [TOBRAMYCIN] as the molecule, how does the MIC (Pseudomonas aeruginosa [21]) read?
Answer: 2050 µg/mL

Question: For `CO[C@H]1/C=C/O[C@@]2(C)Oc3c(C)c(O)c4c(O)c(c(/C=N/N5CCN(C)CC5)c(O)c4c3C2=O)NC(=O)/C(C)=C\C=C\[C@H](C)[C@H](O)[C@@H](C)[C@@H](O)[C@@H](C)[C@H](OC(C)=O)[C@@H]1C` [RIFAMPIN], which MIC (Pseudomonas aeruginosa [22]) is on record?
Answer: 32 µg/mL

Question: And the MIC (Pseudomonas aeruginosa [23])?
Answer: 16 µg/mL

Question: Which MIC (Pseudomonas aeruginosa [24]) does the source give for `CO[C@H]1/C=C/O[C@@]2(C)Oc3c(C)c(O)c4c(O)c(c(/C=N/N5CCN(Cc6cn(CCCCCCCCCCCCO[C@@H]7[C@@H](O[C@H]8O[C@H](CO)[C@@H](O)[C@H](N)[C@H]8O)[C@H](N)C[C@H](N)[C@H]7O[C@H]7O[C@H](CN)[C@@H](O)C[C@H]7N)nn6)CC5)c(O)c4c3C2=O)NC(=O)/C(C)=C\C=C\[C@H](C)[C@H](O)[C@@H](C)[C@@H](O)[C@@H](C)[C@H](OC(C)=O)[C@@H]1C.O=C(O)C(F)(F)F.O=C(O)C(F)(F)F.O=C(O)C(F)(F)F.O=C(O)C(F)(F)F.O=C(O)C(F)(F)F` here?
Answer: 128 µg/mL

Question: And the MIC (Pseudomonas aeruginosa [25])?
Answer: 0.125 µg/mL

Question: And the MIC (Pseudomonas aeruginosa [26])?
Answer: 0.0625 µg/mL

Question: What about the “fold change (FC)” value (Pseudomonas aeruginosa [27]) of the same molecule?
Answer: 4

Question: And the “fold change (FC)” value (Pseudomonas aeruginosa [28])?
Answer: 4

Question: And the “fold change (FC)” value (Acinetobacter baumannii)?
Answer: 0

From ChEMBL document CHEMBL4715829, “Heterodimeric Rifampicin-Tobramycin conjugates break intrinsic resistance of Pseudomonas aeruginosa to doxycycline and chloramphenicol in vitro and in a Galleria mellonella in vivo model” (Eur J Med Chem, 2019)
